Experimental data reported in PubChem BioAssay AID200 (DTP/NCI, 2004).
“And” between values parts separate entries of the source, which are not always exact repeats. Equal entries are not always repeated. Inconclusive results and toxic doses are left out. Where a SMILES comes first, the peptide text is derived from it.

System: B6C3F1 mice, B16 melanoma ip, median survival T/C
Test: NCI In Vivo Anticancer Drug Screen. Data for tumor model B16 Melanoma (intraperitoneal) in B6C3F1 mice
Conditions: endpoint: median survival time, schedule: Q01DX009 (ip), higher = longer survival
How it was run: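 Values are T/C ratios: the measurement in treated animals divided by that in vehicle-treated controls, using survival or tumor size in mice carrying transplantable tumors.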

[1] = dose: 50.0 mg/kg/injection, vehicle: saline with Tween-80
[2] = dose: 100.0 mg/kg/injection, vehicle: saline with Tween-80
[3] = dose: 200.0 mg/kg/injection, vehicle: saline with Tween-80
[4] = dose: 400.0 mg/kg/injection, vehicle: saline with Tween-80
[5] = dose: 6.25 mg/kg/injection, vehicle: Klucel (hydroxypropylcellulose) (HPC)
[6] = dose: 12.5 mg/kg/injection, vehicle: Klucel (hydroxypropylcellulose) (HPC)
[7] = dose: 2.5 mg/kg/injection, vehicle: Klucel (hydroxypropylcellulose) (HPC)
[8] = dose: 5.0 mg/kg/injection, vehicle: Klucel (hydroxypropylcellulose) (HPC)
[9] = dose: 12.5 mg/kg/injection, vehicle: saline with Tween-80
[10] = dose: 25.0 mg/kg/injection, vehicle: saline with Tween-80
[11] = dose: 50.0 mg/kg/injection, vehicle: saline
[12] = dose: 100.0 mg/kg/injection, vehicle: saline
[13] = dose: 200.0 mg/kg/injection, vehicle: saline
[14] = dose: 400.0 mg/kg/injection, vehicle: saline
[15] = dose: 20.0 mg/kg/injection, vehicle: saline with Tween-80
[16] = dose: 40.0 mg/kg/injection, vehicle: saline with Tween-80
[17] = dose: 80.0 mg/kg/injection, vehicle: saline with Tween-80

For CN(C)N=Nc1ccc(Cl)c2ncccc12, the T/C (dose: 3.13 mg/kg/injection, vehicle: other) was 115 % of control, the T/C (dose: 6.25 mg/kg/injection, vehicle: other) was 106 % of control and the T/C (dose: 12.5 mg/kg/injection, vehicle: other) was 109 % of control. The T/C (dose: 25.0 mg/kg/injection, vehicle: other) was 117 % of control and the T/C (dose: 50.0 mg/kg/injection, vehicle: other) was 114 % of control.
In the case of CCN(CC)CC(=O)O[C@]1(CC)C(=O)OCc2c1cc1n(c2=O)Cc2cc3ccccc3nc2-1, the T/C (dose: 1.0 mg/kg/injection, vehicle: water) is reported as 108 % of control, the T/C (dose: 2.0 mg/kg/injection, vehicle: water) is reported as 121 % of control and the T/C (dose: 4.8 mg/kg/injection, vehicle: water) is reported as 152 % of control. The T/C (dose: 8.0 mg/kg/injection, vehicle: water) was 166 % of control.
O=C1c2ccccc2-c2c(Br)c3ccccc3c(=O)n21 was tested, and the T/C [1] was 90 % of control, the T/C [2] was 101 % of control and the T/C [3] was 95 % of control. The T/C [4] was 94 % of control.
O=Cc1c(CO)cc(O)c(O)c1O was tested, and the T/C (dose: 3.13 mg/kg/injection, vehicle: Klucel (hydroxypropylcellulose) (HPC)) was 115 % of control, the T/C [5] was 104 % of control and the T/C [6] was 89 % of control. For the same compound, the T/C (dose: 25.0 mg/kg/injection, vehicle: Klucel (hydroxypropylcellulose) (HPC)) was 88 % of control.
In the case of C=C1C(C)C2C(Cc3ccccc3)NC(=O)C23C(OC(C)=O)C=CC(C)(O)C(=O)C(C)C/C=C/C3C1O (stereo unspecified), the T/C (dose: 0.31 mg/kg/injection, vehicle: Klucel (hydroxypropylcellulose) (HPC)) is reported as 101 % of control, the T/C (dose: 0.63 mg/kg/injection, vehicle: Klucel (hydroxypropylcellulose) (HPC)) is reported as 98 % of control and the T/C (dose: 1.25 mg/kg/injection, vehicle: Klucel (hydroxypropylcellulose) (HPC)) is reported as 109 % of control. For the same compound, the T/C [7] was 101 % of control and the T/C [8] was 106 % of control.
In the case of O=CC=O, the T/C [9] is reported as 114 % of control, the T/C [10] is reported as 110 % of control and the T/C [1] is reported as 102 % of control and 108 % of control. For the same compound, the T/C [2] was 114 % of control and 106 % of control and the T/C [3] was 120 % of control and 108 % of control.
NS(=O)(=O)OCCCCCCCOS(N)(=O)=O was tested, and the T/C [9] was 115 % of control and the T/C [1] was 171 % of control.
In the case of c1ccc2c3c(ccc2c1)Sc1ccc2ccccc2c1N3, the T/C [11] is reported as 112 % of control, the T/C [12] is reported as 112 % of control and the T/C [13] is reported as 112 % of control. For the same compound, the T/C [14] was 123 % of control.
With CC1(C)CC(=O)C(CSC(=O)c2ccccc2)C(=O)C1 the T/C (dose: 1.56 mg/kg/injection, vehicle: Klucel (hydroxypropylcellulose) (HPC)) was 94 % of control, the T/C (dose: 3.12 mg/kg/injection, vehicle: Klucel (hydroxypropylcellulose) (HPC)) was 97 % of control and 99 % of control and the T/C [5] was 98 % of control. For the same compound, the T/C [6] was 93 % of control.
For NC=NCC(=O)O, the T/C [11] was 108 % of control, the T/C [12] was 105 % of control and the T/C [13] was 97 % of control.
In the case of NCC(O)c1ccc(O)c(O)c1 (stereo unspecified), the T/C (dose: 0.39 mg/kg/injection, vehicle: suspension in saline) is reported as 109 % of control, the T/C (dose: 0.75 mg/kg/injection, vehicle: suspension in saline) is reported as 96 % of control and the T/C (dose: 1.5 mg/kg/injection, vehicle: suspension in saline) is reported as 103 % of control. For the same compound, the T/C (dose: 3.0 mg/kg/injection, vehicle: suspension in saline) was 100 % of control, the T/C (dose: 6.0 mg/kg/injection, vehicle: suspension in saline) was 100 % of control and 106 % of control and the T/C (dose: 12.0 mg/kg/injection, vehicle: suspension in saline) was 124 % of control and 105 % of control. The T/C (dose: 24.0 mg/kg/injection, vehicle: suspension in saline) was 100 % of control.
In the case of CC(=O)Oc1ccc2c3c1O[C@H]1[C@@H](OC(C)=O)C=C[C@H]4[C@@H](C2)N(C)CC[C@@]341, the T/C (dose: 0.5 mg/kg/injection, vehicle: saline) is reported as 101 % of control, the T/C (dose: 1.0 mg/kg/injection, vehicle: saline) is reported as 93 % of control and the T/C (dose: 2.0 mg/kg/injection, vehicle: saline) is reported as 90 % of control. For the same compound, the T/C (dose: 4.0 mg/kg/injection, vehicle: saline) was 100 % of control, the T/C (dose: 8.0 mg/kg/injection, vehicle: saline) was 98 % of control and the T/C (dose: 16.0 mg/kg/injection, vehicle: saline) was 86 % of control. For the same compound, the T/C (dose: 32.0 mg/kg/injection, vehicle: saline) was 93 % of control, the T/C (dose: 64.0 mg/kg/injection, vehicle: saline) was 102 % of control and the T/C (dose: 128.0 mg/kg/injection, vehicle: saline) was 110 % of control.
O=C(Nc1ccccc1CCl)Nc1ccccc1CCl was tested, and the T/C [10] was 111 % of control, the T/C [1] was 115 % of control and the T/C [2] was 115 % of control. For the same compound, the T/C [3] was 118 % of control.
For [Cl][Pt+2][Cl].[NH-]c1cc(Cl)c(Cl)cc1[NH-], the T/C [15] was 97 % of control and 107 % of control, the T/C [16] was 110 % of control and 101 % of control and the T/C [17] was 110 % of control and 122 % of control. The T/C (dose: 160.0 mg/kg/injection, vehicle: saline with Tween-80) was 111 % of control and 105 % of control and the T/C (dose: 320.0 mg/kg/injection, vehicle: saline with Tween-80) was 110 % of control and 106 % of control.
O=C1C2C3C=CC(C2C(=O)N1CO)C1C2C(=O)N(CO)C(=O)C2C31 (stereo unspecified) was tested, and the T/C (dose: 6.25 mg/kg/injection, vehicle: water) was 102 % of control, the T/C (dose: 12.5 mg/kg/injection, vehicle: water) was 109 % of control and the T/C (dose: 25.0 mg/kg/injection, vehicle: water) was 113 % of control.
In the case of CC(=O)NC(Cc1ccccc1)C(=O)NC(Cc1ccccc1)C(=O)O (stereo not drawn) (Ac-Phe-Phe-OH; configuration not given here), the T/C [10] is reported as 107 % of control, the T/C [1] is reported as 100 % of control and the T/C [2] is reported as 102 % of control. For the same compound, the T/C [3] was 104 % of control and the T/C [4] was 92 % of control.
For Cn1cnc([N+](=O)[O-])c1SCC(=O)O, the T/C [9] was 104 % of control, the T/C (dose: 12.5 mg/kg/injection, vehicle: saline) was 109 % of control and the T/C [10] was 89 % of control. The T/C (dose: 25.0 mg/kg/injection, vehicle: saline) was 114 % of control, the T/C [1] was 103 % of control and the T/C [11] was 122 % of control. The T/C [2] was 98 % of control, the T/C [12] was 108 % of control and the T/C [3] was 97 % of control. The T/C [13] was 104 % of control, the T/C [4] was 97 % of control and the T/C [14] was 99 % of control.
CC(C)NC(=O)OCc1c(COC(=O)NC(C)C)c(-c2ccc(Cl)c(Cl)c2)n2c1CCC2 was tested, and the T/C [7] was 115 % of control, the T/C [8] was 158 % of control and the T/C (dose: 5.0 mg/kg/injection, vehicle: saline with Tween-80) was 159 % of control. For the same compound, the T/C (dose: 6.25 mg/kg/injection, vehicle: distilled water + Tween-80) was 166 % of control and 169 % of control and 176 % of control, the T/C (dose: 10.0 mg/kg/injection, vehicle: Klucel (hydroxypropylcellulose) (HPC)) was 153 % of control and 175 % of control and the T/C (dose: 10.0 mg/kg/injection, vehicle: saline with Tween-80) was 196 % of control. For the same compound, the T/C (dose: 20.0 mg/kg/injection, vehicle: Klucel (hydroxypropylcellulose) (HPC)) was 209 % of control, the T/C [15] was 191 % of control and the T/C (dose: 40.0 mg/kg/injection, vehicle: Klucel (hydroxypropylcellulose) (HPC)) was 235 % of control and 256 % of control. The T/C [16] was 251 % of control and the T/C [17] was 89 % of control.
